The numbers were not newly measured in US20080075681A1, “Method and composition for permanently shaping hair” (priority 2006, published 2008), which cites them from elsewhere.

The conditions of this series: compared to N-methylmercaptoacetamide and N-hydroxyethylmercaptoacetamide; EP 0969791 B1.

On to `O=C(CS)NCCCO` [N-(3′-hydroxypropyl)-2-mercapto-acetamide], for which the sensitization rates entry is reported as “substantially lower”.
